Results taken from US12171729B2, “Formulations of terameprocol and temozolomide and their use in stimulation of humoral immunity in tumors” (The Johns Hopkins University, priority 2019, dated 2024).

Columns and labels:
[1] = system: malignant gliomas; settings: cited from earlier work
[2] = system: LN229 tumor xenograft mice; assay: Cytokine profiles in serum of treated LN229 xenograft nude mice; assay type: in vivo, mouse; settings: sera from LN229 tumor xenograft mice
[3] = system: LN229 tumors; assay: Metabolite analysis (Metabolon) of LN229 tumor samples; assay type: in vivo, mouse; settings: EM+M4N+TMZ1/2 versus EM+TMZ1/2 schedule
[4] = system: Kras G12D mice; settings: mouse, in vivo, po
Description: FIG. 13 depicts MRI of lung tumors in mice. The axial images were taken by 9.4 T MRI; RARE T2-weighted; slice thickness=1 mm; total slice number=24. The scan started from neck to bottom of ribs. The tumor size ≥1 mm is detectable by this scan. H, heart; S, spine; Arrow: lung tumor;
In the present Kras-driven lung cancer model, since mice carry homozygous mutant Kras are embryonic lethal, all Kras mice bred are heterozygous Kras^+/G12D that one genetic engineering allele can synthesize the Kras G12D protein by “hit-and-run” recombination and cause cancers spontaneously (FIG. 11A). According to previous reports and experience, lung lesions could be found in mice as young as one-week old. In this group of mice, 100% of the mice will develop lung cancer between 15 to 40 weeks of age (FIG. 11B), and about 30% may also develop thymic lymphoma and papilloma (Nature; 410:6832; 1111-6, 2001). […]
In this study, 10-week old, female, Kras G12D mice were chosen; which lung cancer had not been well developed in at this age. […] After consecutive treatments for 120 days, treatment for mice that reached 28 weeks old was stopped in both groups and the mice were monitored and weighed continuously. […]

[5] = system: LN229 tumors; assay: Immune cells infiltration in LN229 tumors from xenograft mice; assay type: in vivo, mouse
[6] = daily (1 mg/day) IV injection, nude mice carrying human tumor xenografts; cited from earlier work
[7] = oral administration, short-term and long-term feeding; cited from earlier work

Row | SMILES | survival rate at 2 years ([1]; radiotherapy and chemotherapy, radiotherapy alone 10.4%) | dose-limiting toxicity ([1]; systemic exposure, specifically thrombocytopenia and neutropenia) | level of IL-21 in sera (in words) [2] | effect on metabolic pathways of the tumor [3] | weight loss during treatment [4] | tumor infiltrating immune cells in the tumor microenvironment [5] | M4N levels accumulated in blood and tumors [6] | M4N concentration in mouse organs [7]
1 | Cn1nnc2c(C(N)=O)ncn2c1=O [TMZ, 3,4-dihydro-3-methyl-4-oxoimidazo[5,1-d]-1,2,3,5-tetrazine-8-carboxamide] | 26.5% | hematological toxicity |  |  |  |  |  | 
2 | COc1ccc(C[C@@H](C)[C@@H](C)Cc2ccc(OC)c(OC)c2)cc1OC [M4N, Tetra-O-methyl nordihydroguaiaretic acid] |  |  | significantly increased | suppressed most of the metabolic pathways | no significant weight loss | Tumor infiltrating macrophages and B cells | above 1 mM | ≤ 906 μg/g of tissue
